# Tests used:
# [1] = target: T1, PDK1 phosphorylation of GST-S6K1-T2[Thr412Glu] (Homo sapiens, UniProt O15530); experiment: PDK1 phosphorylation of substrate S6K1 in vitro; format: biochemical; details: compound 100 and 200 μM
# T1 construct: GST (N); made in house; host or cells: HEK293
# Description: (§1) FIG. 4—Small compounds designed to bind the HM/PIF-pocket of PDK1 can block the PDK1-dependent phosphorylation and activation of substrates that require docking to the HM/PIF-pocket of PDK1. (A) Effect of compound 1 (100 and 200 μM) on PDK1 phosphorylation of its substrate S6K1. The phosphorylation reaction was performed in vitro with [γ^32P]ATP and then separated on SDS-PAGE followed by exposure to phosphorimager. The radioactive band corresponding to phosphorylated GST-56K1-T2[Thr412Glu] (S6K[412E]) is indicated. (B) PDK1 or PDK1[Val127Leu] (PDK1[V127L]) were pre-incubated with GST-[…]N-SGK1 [Ser422Asp] […] (C) The activity of S6K was measured in vitro after glutathione sepharose purification; aliquots of purified proteins were separated on SDS-PAGE and the level of activation loop phosphorylation was visualized by immunoblotting using phospho-specific antibodies that recognize the phosphorylated activation loop, followed by stripping of the membranes and re-probing with anti-GST to verify the presence of equal amounts of protein. (D) Cells overexpressing GST-56K1-T2[Thr412Glu] were treated as in (C) but S6K activity was measured in vitro after immunoprecipitation of the GST-fusion protein with anti-GST antibodies; the level of S6K expression was analysed by western-blotting of crude extracts. […]
# [2] = target: T2, PDK1 activation of SGK1 [Ser422Asp] (Homo sapiens, UniProt O15530); experiment: SGK1 activation by PDK1 in vitro; format: biochemical; details: compound 60 μM
# T2 construct: GST (N); made in house; host or cells: HEK293
# Description: as §1
# [3] = target: T3, PDK1[Val127Leu] activation of SGK1 [Ser422Asp] (Homo sapiens, UniProt O15530, V127L); experiment: SGK activation by PDK1[Val127Leu] in vitro; format: biochemical; details: compound 60 μM
# T3 construct: GST (N); made in house; host or cells: HEK293
# Description: as §1
# [4] = test system: GST-S6K1-T2[Thr412Ala] in HEK 293 cells; experiment: S6K activation loop phosphorylation in transfected HEK 293 cells; format: cell-based, human; details: 200 μM, 90 minutes
# Description: as §1
# PDK1 = target: T4, PDK1 (Homo sapiens, UniProt O15530); experiment: PDK1 kinase activity with S6K tail peptides; format: biochemical
# T4 sequence (O15530 1-556): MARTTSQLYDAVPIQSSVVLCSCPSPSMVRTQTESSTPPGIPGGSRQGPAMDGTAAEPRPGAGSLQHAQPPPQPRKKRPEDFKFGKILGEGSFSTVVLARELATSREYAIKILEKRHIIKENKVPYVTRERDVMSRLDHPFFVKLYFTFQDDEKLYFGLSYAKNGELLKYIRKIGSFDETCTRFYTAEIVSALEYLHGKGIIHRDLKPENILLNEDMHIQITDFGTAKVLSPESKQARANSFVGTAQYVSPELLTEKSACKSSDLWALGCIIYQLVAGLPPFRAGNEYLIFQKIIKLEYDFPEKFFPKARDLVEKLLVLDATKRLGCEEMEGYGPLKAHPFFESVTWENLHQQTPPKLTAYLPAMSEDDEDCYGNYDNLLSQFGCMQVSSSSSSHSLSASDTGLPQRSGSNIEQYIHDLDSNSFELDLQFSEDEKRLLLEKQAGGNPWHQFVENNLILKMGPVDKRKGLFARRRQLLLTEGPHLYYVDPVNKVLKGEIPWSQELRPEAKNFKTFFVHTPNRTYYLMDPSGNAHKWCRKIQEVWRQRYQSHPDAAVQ
# Description: FIG. 21 (A) Aliquots of S6K1 protein from bar 1, 2, 5 and 6 in FIG. 5B were subjected to immunoblotting with phosphorylation site specific Ab against the activation loop or anti-HA Ab. (B) The kinase activity of PKB<143-479, prephosphorylated by PDK1 in the activation loop, was determined in the presence of increasing concentrations of synthetic PRK2 tail peptides encompassing the HM, which were either nonphosphorylated (PIFtide) or phosphorylated at the tail site (pT958-PIFtide). […] (C) The kinase activity of purified PDK1 was determined in the presence of increasing concentrations of synthetic S6K tail peptide (residues 366-395) that was either phosphorylated at T389 (S371/pT389) or phosphorylated at both 5389 and 5371 (pS371/pT389). Kinase activity is expressed as percent, and data are means+/−SD of 3 independent experiments. (D) Synthetic S371/pT389 S6K tail peptide and pS371/pT389 S6K tail peptide were biotinylated and used to coat streptavidin Sensor Chips. PDK150-360 was injected at different concentrations (0.05-5.4 mM) onto the peptide coated chips. In the inserts, the kinetic constants were obtained by fitting the data to a hyperbola using kaleidagraph software. Representative results from one of several experiments are shown.
# T3 sequence (O15530 whole entry V127L): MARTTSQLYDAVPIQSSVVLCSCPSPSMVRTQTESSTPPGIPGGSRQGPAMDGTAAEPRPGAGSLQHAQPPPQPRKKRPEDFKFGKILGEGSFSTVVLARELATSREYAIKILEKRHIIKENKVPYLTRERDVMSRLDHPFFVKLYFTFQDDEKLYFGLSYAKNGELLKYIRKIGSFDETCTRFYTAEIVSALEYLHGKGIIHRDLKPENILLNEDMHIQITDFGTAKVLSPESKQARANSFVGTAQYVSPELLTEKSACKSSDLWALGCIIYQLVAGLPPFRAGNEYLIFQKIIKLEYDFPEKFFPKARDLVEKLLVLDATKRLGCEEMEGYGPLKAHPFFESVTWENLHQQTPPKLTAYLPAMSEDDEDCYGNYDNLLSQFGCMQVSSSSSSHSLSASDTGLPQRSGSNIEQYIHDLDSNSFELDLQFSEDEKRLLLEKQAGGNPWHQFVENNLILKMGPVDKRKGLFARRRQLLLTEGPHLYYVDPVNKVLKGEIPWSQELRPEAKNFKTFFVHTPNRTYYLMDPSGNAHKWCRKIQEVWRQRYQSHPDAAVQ
PDK1-catalyzed phosphorylation of S6K1 (in words) [1],SGK1 activation by PDK1 (in words) [2],SGK activation by PDK1[Val127Leu] (in words) [3],activation of PDK1 by tail peptide (in words) (PDK1),Compound,activation loop phosphorylation of S6K1-T2[Thr412Ala] (in words) [4]
decreased,inhibited,not inhibited,–,O=C(O)CSC(CC(=O)c1ccc(Cl)cc1)c1ccccc1 (centres unmarked) [Compound 1],significantly decreased
–,–,–,activated to the same extent,S371/pT389: synthetic S6K1 tail peptide (residues 366-395) phosphorylated in the HM,–

# — patent US20110152166A1, “METHOD OF MODULATION OF PROTEIN PHOSPHORYLATION-DEPENDENT CONFORMATIONAL TRANSITIONS WITH LOW MOLECULAR WEIGHT COMPOUNDS” (priority 2006, published 2011)
